Measurements taken from patent US20160095843A1, “PYRAZOLOPYRROLIDINE DERIVATIVES AND THEIR USE IN THE TREATMENT OF DISEASE” (NOVARTIS AG, priority 2013, published 2016).

What was measured:
[1] = system: MV-4-11 cells; test: Cell growth inhibition assay (CellTiter-Glo), MV-4-11; type: cell-based; settings: Homo sapiens, MV4-11
How it was run: (§1)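 Leukemia lines grown in their own media were exposed for 4 days at 37° C. to 3-fold serial dilutions from 10 μM (0.1% DMSO). Viability by CellTiter-Glo ATP luminescence, corrected for background and day-0 plate; IC50 and TGI from four-parameter fit against vehicle (100%) and medium (−100%).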

[2] = system: THP-1 cells; test: Cell growth inhibition assay (CellTiter-Glo), THP-1; type: cell-based; settings: Homo sapiens
How it was run: as §1

[3] = system: K-562 cells; test: Cell growth inhibition assay (CellTiter-Glo), K-562; type: cell-based, human; settings: for GI50: Homo sapiens, K562
How it was run: as §1

| Compound | GI50 [1] | GI50 [2] | GI50 [3] | IC (TGI) [3] |
| --- | --- | --- | --- | --- |
| COc1ncc(-n2nc(C)c3c2C(=O)N(c2cc(C)c(=O)n(C)c2)[C@@H]3c2ccc(Cl)cc2)c(OC)n1 [Example 100, (R)-4-(4-chlorophenyl)-1-(2,4-dimethoxypyrimidin-5-yl)-5-(1,5-dimethyl-6-oxo-1,6-dihydropyridin-3-yl)-3-methyl-4,5-dihydropyrrolo[3,4-c]pyrazol-6(1H)-one] | 40.5 nM | 88 nM | 264 nM |  |
| Cc1nn(C2CC2)c2c1C(c1ccc(Cl)cc1)N(c1ccc3nnn(C)c3n1)C2=O (stereo not drawn) [Example 102, 4-(4-chlorophenyl)-1-cyclopropyl-3-methyl-5-(3-methyl-3H-[1,2,3]triazolo[4,5-b]-pyridin-5-yl)-4,5-dihydropyrrolo-[3,4-c]pyrazol-6(1H)-one] | 87.5 nM | 140 nM | 653 nM |  |
| Cc1nn(C(C)C)c2c1[C@H](c1ccc(Cl)cc1)N(c1cc(C)c(=O)n(C)c1)C2=O [Example 103, (S)-4-(4-chlorophenyl)-5-(1,5-dimethyl-6-oxo-1,6-dihydropyridin-3-yl)-1-isopropyl-3-methyl-4,5-dihydropyrrolo-[3,4-c]pyrazol-6(1H)-one] | 3590 nM | 7290 nM | > 10000 nM |  |
| Cc1nn(C(C)C)c2c1[C@@H](c1ccc(Cl)cc1)N(c1cc(C)c(=O)n(C)c1)C2=O [Example 104, (R)-4-(4-chlorophenyl)-5-(1,5-dimethyl-6-oxo-1,6-dihydropyridin-3-yl)-1-isopropyl-3-methyl-4,5-dihydropyrrolo[3,4-c]pyrazol-6(1H)-one] | 9.97 nM | 26.2 nM | 57.6 nM | >10000 nM |
| CCc1nn(C2CC2)c2c1[C@H](c1ccc(Cl)cc1)N(c1cc(C)c3nnc(C)n3c1)C2=O [Example 106, (S)-4-(4-chlorophenyl)-1-cyclopropyl-5-(3,8-dimethyl-[1,2,4]triazolo[4,3-a]pyridin-6-yl)-3-ethyl-4,5-dihydropyrrolo-[3,4-c]pyrazol-6(1H)-one] | 649 nM | 2110 nM | 4060 nM | >10000 nM |

The remaining compounds from weak to strong by GI50 [1], led by results:

| GI50 [1] | GI50 [2] | GI50 [3] | Compound | IC (TGI) [3] |
| --- | --- | --- | --- | --- |
| 2000 nM | 2840 nM | > 10000 nM | COc1ncc(-n2nc(C)c3c2C(=O)N(c2cc(C)c(=O)n(C)c2)[C@H]3c2ccc(Cl)cc2)c(OC)n1 [Example 99, (S)-4-(4-chlorophenyl)-1-(2,4-dimethoxypyrimidin-5-yl)-5-(1,5-dimethyl-6-oxo-1,6-dihydropyridin-3-yl)-3-methyl-4,5-dihydropyrrolo-[3,4-c]pyrazol-6(1H)-one] | >10000 nM |
| 102 nM | 188 nM | 729 nM | CCc1nn(C)c2c1C(c1ccc(Cl)cc1)N(c1cc(OC)c3nnc(C)n3c1)C2=O (stereo not drawn) [Example 105, 4-(4-chlorophenyl)-3-ethyl-5-(8-methoxy-3-methyl-[1,2,4]triazolo[4,3-a]pyridin-6-yl)-1-methyl-4,5-dihydropyrrolo-[3,4-c]pyrazol-6(1H)-one] |  |
| 68 nM | 164 nM | 684 nM | Cc1nn(C2CC2)c2c1C(c1ccc(C(F)(F)F)cc1)N(c1cc(C)c(=O)n(C)c1)C2=O (stereo not drawn) [Example 97, 1-cyclopropyl-5-(1,5-dimethyl-6-oxo-1,6-dihydropyridin-3-yl)-3-methyl-4-(4-(trifluoromethyl)phenyl)-4,5-dihydropyrrolo-[3,4-c]pyrazol-6(1H)-one] |  |
| 25.7 nM | 53 nM | 261 nM | COc1ncccc1-n1nc(C)c2c1C(=O)N(c1cc(C)c3nnc(C)n3c1)C2c1ccc(Cl)cc1 (stereo not drawn) [Example 101, 4-(4-chlorophenyl)-5-(3,8-dimethyl-[1,2,4]triazolo[4,3-a]pyridin-6-yl)-1-(2-methoxypyridin-3-yl)-3-methyl-4,5-dihydropyrrolo[3,4-c]pyrazol-6(1H)-one] |  |
